# Measured values published in US20110190503A1, “Thiazolopyridin-2-yloxy-phenyl and thiazolopyrazin-2-yloxy-phenyl amines as modulators of leukotriene A4 hydrolase” (Janssen Pharmaceutical NV, priority 2008, published 2011).
# Assays:
# [1] = test system: ex vivo stimulated LTB4 production; assay: Murine arachidonic acid-induced inflammation model: ex vivo stimulated LTB4 production (% Inh. LTB4); settings: Mus musculus; female Balb/c mice, 30 mg/kg oral gavage; blood taken 3 h after arachidonic acid, ex vivo A23187 stimulation; number of determinations in parentheses
# Experimental: (§1) Assay 4: Murine Arachidonic Acid-Induced Inflammation Model
# (§2) LTA4H inhibitor compounds of the present invention were dissolved in 20% cyclodextran/H2O at a concentration of 3 mg/mL. The solutions were administered by oral gavage to female Balb/c mice weighing approximately 20 grams each (0.2 mL per mouse, 30 mg of LTA4H inhibitor compound per kg). Sixty minutes after being administered an LTA4 inhibitor, each mouse received topical application of 20 μL of arachidonic acid (100 mg/mL in acetone) to the left ear and 20 μL of acetone only to the right ear. After 3 h, the mice were sacrificed, blood was withdrawn in heparinized syringes, and 8 mm ear biopsies were taken. Ear biopsies were weighed to determine edema and then frozen at −80° C. until needed for determination of neutrophil influx.
# One hundred-microliter aliquots of heparinized blood were added to wells of a microtiter plate, along with equal volumes of RPMI-1640 medium, and calcium ionophore A23187 was added to each sample well (final concentration=[…]). The microtiter plate contents were incubated for 30 min at 37° C. in a humidified incubator. The reaction was terminated by centrifugation (833×g, 10 min at 4° C.). Supernatants were analyzed for LTB4 by a commercially available enzyme-linked immunoassay (Cayman Chemical Co.) in accordance with the manufacturer's instructions. The percent inhibition of ex vivo stimulated LTB4 production (% Inh. LTB4) was determined by comparison to animals treated identically except that the solution administered by oral gavage was devoid of inhibitor compound.
# (§3) The number of determinations is indicated in parentheses following each value
# [2] = test system: LTB4 production by calcium ionophore-stimulated murine blood; assay: LTB4 production by calcium ionophore-stimulated murine blood for LTA4H inhibitor activity; assay type: cell-based, CD-1 mice; settings: Mus musculus; murine blood diluted 1 in 15, calcium ionophore A23187, LTB4 by immunoassay; read-out: IC50
# Summary of the method: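 Heparinized CD-1 mouse blood pre-incubated with compound 15 min at 37° C, then stimulated with calcium ionophore A23187 (7 μg/mL final) for 30 min. LTB4 in supernatant measured by enzyme immunoassay; values are single or averaged determinations, with SD for n≥3.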
# [3] = target: T1, recombinant human LTA4 hydrolase (rhLTA4H) (Homo sapiens, UniProt P09960); assay: Recombinant human LTA4 hydrolase assay for LTA4 hydrolase inhibitor activity; assay type: biochemical; settings: rhLTA4H, LTA4 substrate, LTB4 by immunoassay; single determination or average; read-out: IC50
# T1 construct: made in house; host or cells: Spodoptera frugiperda (Sf-9) cells, recombinant baculovirus (pFastBac1)
# T1 sequence (P09960 1-611): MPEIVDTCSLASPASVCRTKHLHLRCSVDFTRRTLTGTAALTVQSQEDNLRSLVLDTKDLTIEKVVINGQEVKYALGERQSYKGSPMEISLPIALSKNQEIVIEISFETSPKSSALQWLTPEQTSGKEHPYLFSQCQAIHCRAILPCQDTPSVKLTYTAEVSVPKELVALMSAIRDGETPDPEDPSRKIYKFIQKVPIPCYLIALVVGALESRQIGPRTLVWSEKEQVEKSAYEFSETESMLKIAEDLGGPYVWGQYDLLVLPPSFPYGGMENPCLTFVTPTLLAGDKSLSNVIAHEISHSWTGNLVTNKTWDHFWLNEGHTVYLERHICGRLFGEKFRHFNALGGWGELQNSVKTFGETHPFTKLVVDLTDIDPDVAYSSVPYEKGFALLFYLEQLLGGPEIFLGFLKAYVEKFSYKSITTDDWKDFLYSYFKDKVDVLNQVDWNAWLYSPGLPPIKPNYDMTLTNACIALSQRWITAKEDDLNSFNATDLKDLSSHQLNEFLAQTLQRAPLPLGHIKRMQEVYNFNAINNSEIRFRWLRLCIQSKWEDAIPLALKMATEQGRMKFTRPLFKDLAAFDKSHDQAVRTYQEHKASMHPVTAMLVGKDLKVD
# Summary of the method: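 Recombinant human LTA4H from baculovirus-infected Sf-9 cells (10 ng) pre-incubated 10 min at rt with compound (10% DMSO in dilutions), then reacted with free-acid LTA4 for 30 min at rt. LTB4 measured by ELISA; IC50 by nonlinear regression. Values are single determinations or averages.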
# neutrophil influx = assay: Murine arachidonic acid-induced inflammation model: neutrophil influx in ear, myeloperoxidase activity (% Inh. MPO); assay type: in vivo; settings: Mus musculus, female Balb/c mice, 30 mg/kg oral gavage, ear biopsy 3 h after topical arachidonic acid, number of determinations in parentheses
# Experimental: as §1, §2
# Neutrophil influx was quantified by measuring the activity of myeloperoxidase (MPO), a neutrophil-specific enzyme. The ear biopsies were homogenized in 0.5 mL extraction buffer (0.3 M sucrose, 0.22% (w/v) hexadecyl trimethyl ammonium bromide (CTAB), and 2.5 mM citrate prepared from 0.5 M citrate stock solution (pH 5.0)), in a Fast-Prep-24 (MP™) (40 seconds at 6 mps). Debris was removed by centrifugation at 14000×g for 10 min. Aliquots of 10 μL of the resulting supernatant were added to wells of a microtiter plate, along with 90-μL aliquots of dilution buffer (10 mM citrate, 0.22% CTAB), followed by addition of 20 μL TMB liquid substrate system (Sigma Chemical Co.) to each sample well. The microtiter plate contents were held at room temperature until the sample with the highest concentration of MPO reached an absorbance value of 0.4 at 650 nm. The reaction was stopped by addition of 50 μL 1 M H2SO4 to each sample well, and the myeloperoxidase activity in each sample was determined from the absorbance at 405 nm. The background value from the right ear, treated only with acetone, was subtracted from that for the left ear, treated with arachidonic acid in acetone, for each animal. The percent inhibition of neutrophil influx (% Inh. MPO) by compounds of the invention was determined by comparison to animals treated identically, except that the solution administered by oral gavage was devoid of inhibitor compound.
# as §3
Structure (SMILES),inhibition at 30 mg/kg [1],IC50 [2],IC50 [3],inhibition in vivo at 30 mg/kg (neutrophil influx)
"CCN(CC)Cc1ccc(Oc2nc3ncccc3s2)cc1 [Example 111, N-Ethyl-N-[4-([1,3]thiazolo[4,5-b]pyridin-2-yloxy)benzyl]ethanamine]",56.8%,30 nM,6.6 nM,66.9%
"O=C1C[C@@H](O)CN1C1CCN(Cc2ccc(Oc3nc4ncccc4s3)cc2)CC1 [Example 269, (4R)-4-Hydroxy-1-{1-[4-([1,3]thiazolo[4,5-b]pyridin-2-yloxy)benzyl]piperidin-4-yl}pyrrolidin-2-one]",84.4%,77 nM,3 nM,90.6%
"c1cnc2nc(Oc3ccc(CN4CCC(N5CCOCC5)CC4)cc3)sc2c1 [Example 257, 2-{4-[(4-Morpholin-4-ylpiperidin-1-yl)methyl]phenoxy}[1,3]thiazolo[4,5-b]pyridine]",86%,97 nM,29 nM,70.5%
"CC(=O)N[C@@H]1C[C@H]2CC[C@@H](C1)N2CCOc1ccc(Oc2nc3ncccc3s2)cc1 [Example 17, meso-N-[(3-exo)-8-{2-[4-([1,3]Thiazolo[4,5-b]pyridin-2-yloxy)phenoxy]ethyl}-8-azabicyclo[3.2.1]oct-3-yl]acetamide]",81.5%,25 nM,2 nM,63.4%
"CCN(CCO)CCc1ccc(Oc2nc3ncccc3s2)cc1 [Example 56, 2-(Ethyl{2-[4-([1,3]thiazolo[4,5-b]pyridin-2-yloxy)phenyl]ethyl}amino)ethanol]",71.2%,5 nM,1.9 nM,81.6%
"CC(=O)N[C@H]1C[C@H]2CC[C@@H](C1)N2CCc1ccc(Oc2nc3ncccc3s2)cc1 [Example 76, meso-N-[(3-endo)-8-{2-[4-([1,3]Thiazolo[4,5-b]pyridin-2-yloxy)phenyl]ethyl}-8-azabicyclo[3.2.1]oct-3-yl]acetamide]",85.3%,65 nM,0.5 nM,78.3%
"O=C1CCCN1C1CCN(CCc2ccc(Oc3nc4ncccc4s3)cc2)CC1 [Example 46, 1-(1-{2-[4-([1,3]Thiazolo[4,5-b]pyridin-2-yloxy)phenyl]ethyl}piperidin-4-yl)pyrrolidin-2-one]",86.5%,130 nM,13 nM,75.3%
"OC1(c2ccccc2)CCN(CCOc2ccc(Oc3nc4ncccc4s3)cc2)CC1 [Example 27, 4-Phenyl-1-{2-[4-([1,3]thiazolo[4,5-b]pyridin-2-yloxy)phenoxy]ethyl}piperidin-4-ol]",78.2%,160 nM,32 nM,83.7%
"CC(=O)N1C[C@@H]2C[C@H]1CN2Cc1ccc(Oc2nc3nccnc3s2)cc1 [Example 120, 2-(4-{[(1S,4S)-5-Acetyl-2,5-diazabicyclo[2.2.1]hept-2-yl]methyl}phenoxy)[1,3]thiazolo[4,5-b]pyrazine]",57.8%,150 nM,110 ± 37 nM,48.1%
"CC(=O)N1CC2CN(CCOc3ccc(Oc4nc5ncccc5s4)cc3)CC2C1 (stereo not drawn) [Example 18, 2-{4-[2-(5-Acetylhexahydropyrrolo[3,4-c]pyrrol-2(1H)-yl)ethoxy]phenoxy}[1,3]thiazolo[4,5-b]pyridine]",80.9%,32 ± 24 nM,5.5 nM,86.1%
"CC(=O)N1C[C@@H]2C[C@H]1CN2Cc1ccc(Oc2nc3ncc(Cl)cc3s2)cc1 [Example 122, 2-(4-{[(1S,4S)-5-Acetyl-2,5-diazabicyclo[2.2.1]hept-2-yl]methyl}phenoxy)-6-chloro[1,3]thiazolo[4,5-b]pyridine]",72%,270 nM,48 nM,66.9%
"CC(C)(O)C1CCN(Cc2ccc(Oc3nc4ncccc4s3)cc2)CC1 [Example 89, 2-{1-[4-([1,3]Thiazolo[4,5-b]pyridin-2-yloxy)benzyl]piperidin-4-yl}propan-2-ol]",79.5%,110 nM,42 nM,79.1%
"CC(=O)N[C@H]1C[C@H]2CC[C@@H](C1)N2CCc1ccc(Oc2nc3cccnc3s2)cc1 [Example 52, meso-N-[(3-endo)-8-{2-[4-([1,3]Thiazolo[5,4-b]pyridin-2-yloxy)phenyl]ethyl}-8-azabicyclo[3.2.1]oct-3-yl]acetamide]",78.3%,13 nM,1 nM,60.2%
"NC(=O)C1CCN(CCc2ccc(Oc3nc4ncccc4s3)cc2)CC1 [Example 66, 1-{2-[4-([1,3]Thiazolo[4,5-b]pyridin-2-yloxy)phenyl]ethyl}piperidine-4-carboxamide]",76.2%,40 nM,12 nM,60%
"CC(=O)N1C[C@H]2C[C@@H]1CN2CCc1ccc(Oc2nc3ncccc3s2)cc1 [Example 79, 2-(4-{2-[(1R,4R)-5-Acetyl-2,5-diazabicyclo[2.2.1]hept-2-yl]ethyl}phenoxy)[1,3]thiazolo[4,5-b]pyridine]",86.7%,20 nM,6 nM,82.2%
"Cc1ccnc2nc(Oc3ccc(CN4CCC(C(N)=O)CC4)cc3)sc12 [Example 282, 1-{4-[(7-Methyl[1,3]thiazolo[4,5-b]pyridin-2-yl)oxy]benzyl}piperidine-4-carboxamide]",62.8%,155 nM,66 nM,61.1%
"NC(=O)C1CCN(Cc2ccc(Oc3nc4nccnc4s3)cc2)CC1 [Example 285, 1-[4-([1,3]Thiazolo[4,5-b]pyrazin-2-yloxy)benzyl]piperidine-4-carboxamide]",19.7%,300 nM,94 nM,12.3%
"c1cnc2nc(Oc3ccc(CN4CCCCC4)cc3)sc2c1 [Example 85, 2-[4-(Piperidin-1-ylmethyl)phenoxy][1,3]thiazolo[4,5-b]pyridine]",66.8%,37 nM,2.9 nM,48.4%
